Data: publication PMC10649178, “Exploring the Interactions of Soybean 7S Globulin with Gallic Acid, Chlorogenic Acid and (−)-Epigallocatechin Gallate” (Foods, 2023)
Marks after values point to notes of the source that are not given here.

Columns and labels:
[1] = molecular target: T1, soybean 7S globulin (7S; β-conglycinin) (Glycine max, UniProt P0DO16+P11827+P25974); experiment: isothermal titration calorimetry, one-site model; assay type: binding; settings: 10 mM phosphate pH 7.0, 25 °C, 5 mM ligand
T1 construct: gene CG-1; mature trimers of α, α’ and β, 150-180 kDa
T1 sequence (P11827 63-621): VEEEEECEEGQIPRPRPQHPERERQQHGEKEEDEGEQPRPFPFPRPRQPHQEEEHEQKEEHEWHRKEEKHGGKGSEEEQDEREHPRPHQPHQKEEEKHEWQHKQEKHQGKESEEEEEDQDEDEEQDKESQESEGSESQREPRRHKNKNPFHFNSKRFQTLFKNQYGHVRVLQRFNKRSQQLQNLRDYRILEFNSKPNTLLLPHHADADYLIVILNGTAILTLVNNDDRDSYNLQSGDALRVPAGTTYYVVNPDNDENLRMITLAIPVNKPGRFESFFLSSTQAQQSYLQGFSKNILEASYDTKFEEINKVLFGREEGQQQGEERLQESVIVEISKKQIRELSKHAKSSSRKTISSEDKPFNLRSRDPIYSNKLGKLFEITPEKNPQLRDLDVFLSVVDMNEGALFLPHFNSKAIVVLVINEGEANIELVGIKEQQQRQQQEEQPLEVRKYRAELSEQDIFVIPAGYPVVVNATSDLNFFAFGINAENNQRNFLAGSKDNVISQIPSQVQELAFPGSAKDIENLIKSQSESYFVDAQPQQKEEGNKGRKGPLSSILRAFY
T1 sequence (P0DO16 63-605): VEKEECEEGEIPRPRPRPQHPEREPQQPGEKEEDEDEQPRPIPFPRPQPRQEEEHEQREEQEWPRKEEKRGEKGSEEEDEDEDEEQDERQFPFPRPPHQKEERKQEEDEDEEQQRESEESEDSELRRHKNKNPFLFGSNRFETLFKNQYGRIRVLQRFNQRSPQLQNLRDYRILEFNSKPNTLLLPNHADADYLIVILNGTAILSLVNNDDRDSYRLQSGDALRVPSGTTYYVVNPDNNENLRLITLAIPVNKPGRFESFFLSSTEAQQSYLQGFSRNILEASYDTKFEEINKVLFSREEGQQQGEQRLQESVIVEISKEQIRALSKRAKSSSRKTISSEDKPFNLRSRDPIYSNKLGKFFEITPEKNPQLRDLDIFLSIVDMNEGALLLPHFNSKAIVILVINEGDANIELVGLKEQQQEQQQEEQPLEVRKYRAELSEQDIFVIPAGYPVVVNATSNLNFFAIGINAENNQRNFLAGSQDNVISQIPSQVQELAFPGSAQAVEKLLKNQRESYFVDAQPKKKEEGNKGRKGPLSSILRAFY
T1 sequence (P25974 24-439): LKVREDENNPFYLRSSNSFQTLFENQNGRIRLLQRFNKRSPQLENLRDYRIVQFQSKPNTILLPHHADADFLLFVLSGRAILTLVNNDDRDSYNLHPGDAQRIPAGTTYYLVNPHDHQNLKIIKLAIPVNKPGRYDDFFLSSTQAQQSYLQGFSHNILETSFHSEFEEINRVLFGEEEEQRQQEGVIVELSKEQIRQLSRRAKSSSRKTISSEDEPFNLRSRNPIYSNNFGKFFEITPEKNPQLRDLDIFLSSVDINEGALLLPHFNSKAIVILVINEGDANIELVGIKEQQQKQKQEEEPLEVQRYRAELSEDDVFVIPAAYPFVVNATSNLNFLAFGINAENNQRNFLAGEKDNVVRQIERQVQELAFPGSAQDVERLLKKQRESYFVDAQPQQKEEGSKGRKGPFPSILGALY
Excerpt: isothermal titration calorimetry, one-site model on soybean 7S globulin (7S; β-conglycinin)

[2] = molecular target: T1, soybean 7S globulin (7S; β-conglycinin); experiment: intrinsic fluorescence quenching, double-logarithmic fit; assay type: binding; settings: 10 mM phosphate pH 7.0, 298 K, 10 μM 7S, 0-12 μM ligand
Excerpt: intrinsic fluorescence quenching, double-logarithmic fit on soybean 7S globulin (7S; β-conglycinin)

O=C(/C=C/c1ccc(O)c(O)c1)O[C@@H]1C[C@](O)(C(=O)O)C[C@@H](O)[C@H]1O [CA, chlorogenic acid]
Kd ([1]; 10 μM 7S, N = 7.23 sites): 444 µM | Ka (10^4 L/mol) ([2]; n = 1.42): 7.44 ± 0.32 (10^4)

O=C(O[C@@H]1Cc2c(O)cc(O)cc2O[C@@H]1c1cc(O)c(O)c(O)c1)c1cc(O)c(O)c(O)c1 [EGCG, (−)-epigallocatechin gallate]
Kd ([1]; 5 μM 7S, N = 1.68 sites): 485 µM | Ka (10^4 L/mol) ([2]; n = 1.25): 6.23 ± 0.30 (10^4)

O=C(O)c1cc(O)c(O)c(O)c1 [GA, gallic acid]
Kd ([1]; 10 μM 7S, N = 10.0 sites): 720 µM | Ka (10^4 L/mol) ([2]; n = 1.12): 5.10 ± 0.30 (10^4)
